Measurements published in patent publication EP4591861A1 (IBIOME Biotechnology Co., Ltd., priority 2022, dated 2024).

Experiments:
[1] = system: CRS-induced depression model; assay: Sucrose preference test in CRS-induced depression model; conditions: CRS mice; 0.1 mg/kg intravenous; versus CRS + normal saline group (P<0.01)
Description: After adapting to the environment, from day 0, the CRS mouse group was subjected to chronic, unpredictable mild stimulation for 21 days to simulate the chronic low-intensity stress received by humans in daily life. Every day, one stimulus was selected from the day and night to treat the mice, and the order was random and continuous without repetition, so that the mice could not predict the appearance of the stimulus (Table 1).
Two hours after administration, the mice were subjected to forced swimming and tail suspension tests, and the immobility time of the mice in each group in the forced swimming and tail suspension tests was compared.
The sucrose preference test is used to evaluate the sucrose water preference of mice, which can reflect the degree of anhedonia of mice. In the entire animal experiment, a total of two sucrose preference tests were conducted. Before modeling, the sucrose preference coefficient of all mice was measured by the sucrose preference tests to ensure that the mice in the experiment were in the same state. After the test, the sucrose preference tests were formally carried out, including the adaptation training part and the test part. […] After the adaptation, fasting and water deprivation for 24 hours, and then the sucrose preference coefficient was measured. […]

[2] = system: AAD-induced depression model; assay: Sucrose preference test in AAD-induced depression model; format: in vivo; conditions: AAD mice; 0.1 mg/kg intravenous; versus AAD mice + normal saline group (P<0.01)
Description: (§1) 11, 12, and 13. […] At the same time, it still has a significant antidepressant effect at concentrations of 0.3 mg/kg, 1 mg/kg, and 10 mg/kg.

human BBOX1 = biological target: T1, human BBOX1 (Homo sapiens, UniProt O75936); conditions: binding to the active site of human BBOX1; background statement; cited from earlier work
T1 sequence (O75936 1-387): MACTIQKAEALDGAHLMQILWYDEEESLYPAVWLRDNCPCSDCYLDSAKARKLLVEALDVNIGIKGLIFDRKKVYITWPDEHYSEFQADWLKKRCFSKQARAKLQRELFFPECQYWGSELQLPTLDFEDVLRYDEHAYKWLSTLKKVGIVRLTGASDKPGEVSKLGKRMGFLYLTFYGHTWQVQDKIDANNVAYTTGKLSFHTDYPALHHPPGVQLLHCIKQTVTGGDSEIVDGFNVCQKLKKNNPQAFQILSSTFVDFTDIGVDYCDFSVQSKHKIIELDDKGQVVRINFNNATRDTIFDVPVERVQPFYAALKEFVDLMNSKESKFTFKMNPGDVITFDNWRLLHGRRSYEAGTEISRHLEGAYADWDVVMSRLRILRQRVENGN

[3] = system: AAD-induced depression model; assay: Forced swimming test in AAD-induced depression model; format: in vivo, mice; conditions: for immobility time: forced swimming, AAD mice, 2 hours after administration
Description: The forced swimming test apparatus is a transparent 20×30cm round barrel filled with pure water, with a diameter of 20cm and a water depth of 15cm. The pure water temperature is 23-25°C. A camera is installed in front of the apparatus and is flush with the water surface. After the mouse is placed in the water, a video of its activities in the water is collected for 6 minutes. The last 4 min of the video were analyzed to determine the immobility time of the mouse. Immobility behavior is defined as the behavior of the mouse floating, not struggling, or relying only on occasional swinging to maintain floating. The longer the immobility time, the more severe the depression.
as §1

[4] = system: Cort-induced depression model; assay: Sucrose preference test in Cort-induced depression model; conditions: Cort mice; 0.1 mg/kg intravenous; versus Cort mice + normal saline group (P<0.01)
Description: The sucrose preference test is used to evaluate the sucrose water preference of mice, which can reflect the degree of anhedonia of mice. In the entire animal experiment, a total of two sucrose preference tests were conducted. Before modeling, the sucrose preference coefficient of all mice was measured by the sucrose preference tests to ensure that the mice in the experiment were in the same state. After the test, the sucrose preference tests were formally carried out, including the adaptation training part and the test part. In the training, two bottles of 1% (w/v) sucrose solution were placed in each cage of mice in the first 24 hours, and one of the bottles was replaced with pure water in the next 24 hours. After the adaptation, fasting and water deprivation for 24 hours, and then the sucrose preference coefficient was measured. In the test, mice can only choose two bottles weighed in advance, one bottle is 1% (w/v) sucrose solution, and the other bottle is pure water. After fasting for 24 hours, take away the two bottles and weigh them, and record the total liquid consumption, sucrose water consumption and pure water consumption of the mice. The calculation method of sucrose preference coefficient is: sucrose preference coefficient (%) = sucrose water consumption/ (sucrose water consumption + pure water consumption) × 100%. […]

[5] = system: AAD-induced depression model; assay: Tail suspension test in AAD-induced depression model; format: in vivo; conditions: AAD mice, 2 hours after administration
Description: The tail suspension test uses tape to suspend mice by their tails in a position where they cannot escape or grab onto nearby surfaces. A camera is mounted in front of the mice to record the activity of the mice for 6 minutes while they are suspended. The last 4 min of the video is then analyzed to determine the time the mice spend immobile. This test is based on the idea that animals that are subjected to short-term, unavoidable stress will develop an immobile posture, and the more severe the depressive phenotype, the less time they will spend trying to escape.
as §1

[6] = 0.1 mg/kg intravenous, versus AAD mice + normal saline group

CC(CCC(=O)[O-])[N+](C)(C)C (stereo not shown) [4-TMAP, 4-(trimethylammonio) pentanoate]
sucrose preference [1]: significantly higher | sucrose preference [2]: significantly higher | dissociation constant (human BBOX1): low | duration of the antidepressant effect after a single administration ([3]; mouse, in vivo, iv, 0.1 mg/kg): 24 to 36 h | sucrose preference [4]: significantly higher

O=c1ccc2ccc(OCCCCN3CCN(c4cccc5sccc45)CC3)cc2[nH]1 [Brexpiprazole]
sucrose preference [2]: cannot change the depressive-like behavior | immobility time [5, 6]: cannot change the depressive-like behavior | immobility time ([5]; 3 mg/kg intravenous): significantly reducing | immobility time [3, 6]: cannot change the depressive-like behavior | immobility time ([3]; 3 mg/kg intravenous): significantly reducing
